In patent publication US20250312314A1, “METHOD AND COMPOSITION FOR IMPROVING OR MAINTAINING SKIN HEALTH OF MAMMALS” (NANJING NUTRABUILDING BIO-TECH CO., LTD., priority 2022, published 2025):

Assays:
Malassezia = experiment: Microbial colonization of reconstructed layered human epidermis, live count; format: cell-based; settings: 24±2 h
Protocol: (§1) Primary adult human skin fibroblasts were embedded in fibrin matrix to produce dermal equivalent. The dermal equivalent was cultured to allow fibroblasts to reconstruct matrix. Primary neonatal human keratinocytes were applied on the surface of dermal equivalent and cultured in liquid for 48 hours. Culture was carried out on the air-liquid interface (ALI) until a layered epidermis was formed.
(§2) Staphylococcus epidermidis, Corynebacterium spp., Cutibacterium spp., Propionibacterium acnes and Malassezia were cultured in proper culture medium and incubation conditions (37±2° C., 5±1% (v/v) CO2, ≥95% RH). Inoculation buffer (GS25) was used to prepare inoculum containing about 1.1×10^6 cfu mL^−1 microbial flora of the above bacteria. 10 μL of the mixture was used for skin (layered epidermis) colonization, and each unit was colonized with about 10^4 cfu·cm^−2 of each bacterium. After that, the layered epidermis was incubated at 37±2° C., 5±1% (v/v) CO2, ≥95% RH for 3±1 hours.
(§3) α-Glucan Oligosaccharide (α-GO for short) is a famous prebiotic, which can protect skin health by maintaining the balance of microbial population and strengthening the microbial barrier of skin, so the experiment took it as a control. Control (α-GO, 1 μM) and EGT (0 μM, 0.1 μM, 1 μM, 10 μM, 100 μM, 1000 μM) were applied on the layered epidermis respectively, and then incubated for 24±2 hours at 37±2° C., 5±1% (v/v) CO2 and ≥95% RH. Then, the above five kinds of microorganisms were counted respectively to evaluate the inhibitory effect of α-GO and EGT on microbial growth: 8 mm live tissue slices were taken from layered epidermis, and the number of live bacteria (cfu·cm^−2) was evaluated by incubation on appropriate selective solid medium. The choice of solid medium is based on the characteristics of microorganisms themselves.

[1] = system: Staphylococcus epidermidis; experiment: as above; format: cell-based; settings: 24±2 h
Protocol: as §1, §2, §3

Propionibacterium acnes = experiment: as above; format: cell-based; settings: 24±2 h
Protocol: as §1, §2, §3

Corynebacterium spp. = experiment: as above; format: cell-based; settings: 24±2 h
Protocol: as §1, §2, §3

Cutibacterium spp. = experiment: as above; format: cell-based; settings: 24±2 h
Protocol: as §1, §2, §3

[2] = Elasticity, moisture and desquamation of skin of subjects after applying EGT base cream; format: in vivo, human; settings: once a day for 4 weeks, day 28
Protocol: (§4) Thirty healthy women aged 20-59 were randomly divided into three groups. The first group (0% EGT, n=10) was applied with pure base cream as the control group, the second group (5% EGT, n=10) was applied with base cream mixed with 5% ergothioneine, and the third group (10% EGT, n=10) was applied with base cream mixed with 10% ergothioneine. The applying was performed once a day for 4 weeks. Skin microorganisms were collected on the 0 th and 28 th days respectively, and the elasticity, moisture and desquamation of the skin of the subjects were measured on the 28 th day. Sterile water was used to wash Participants' faces and then applied on solid trypsin soy agar (TSA) medium. Individual colonies were collected and cultured in liquid trypsin soy broth (TSB) medium at 37° C. for 72 hours.

Streptococcus = experiment: Relative abundance of Streptococcus in skin of subjects after applying EGT base cream (16S rRNA); format: in vivo, human; settings: once a day for 4 weeks
Protocol: as §4
Each sample was centrifuged and the precipitate was collected, and the microbial DNA in the precipitate was extracted with a specific kit. The purity and quantity of DNA were measured by spectrophotometer. The 16S rRNA gene of bacteria was amplified with the following primers: forward, 5′-[…]-3′ (SEQ ID NO: 1); reverse, 5′-[…]-3′ (SEQ ID NO: 2). PCR was carried out in a 25 μL reactor, which contained 2 μL genomic DNA (10 ng/μL), 0.5 μL primers (10 μM), 12.5 μL 2×KAPA HiFi HotStart Ready Mix and 9.5 μL distilled water. […]

[3] = EGT 0.1-1000 μM, effect more significant with increasing concentration

In the case of `C[N+](C)(C)[C@@H](Cc1c[nH]c(=S)[nH]1)C(=O)[O-]` [EGT, Ergothioneine], the “colonization of Malassezia in the layered epidermis (live count)” value (Malassezia; [3]) is reported as “obviously inhibited”, the “inhibitory effect on Malassezia compared with α-GO” value (Malassezia; same concentration (1 μM)) is reported as “better inhibitory effect” and the “colonization of Staphylococcus epidermidis in the layered epidermis (live bacteria count)” value [1, 3] is reported as “obviously inhibited”. The “inhibitory effect on Staphylococcus epidermidis compared with α-GO” value ([1]; same concentration (1 μM)) was “better inhibitory effect”, the “colonization of Propionibacterium acnes in the layered epidermis (live bacteria count)” value (Propionibacterium acnes; [3]) was “obviously inhibited” and the “inhibitory effect on Propionibacterium acnes compared with α-GO” value (Propionibacterium acnes; same concentration (1 μM)) was “better inhibitory effect”. The “colonization of Corynebacterium spp. in the layered epidermis (live bacteria count)” value (Corynebacterium spp.; [3]) was “obviously inhibited”, the “inhibitory effect on Corynebacterium spp. compared with α-GO” value (Corynebacterium spp.; same concentration (1 μM)) was “better inhibitory effect” and the “colonization of Cutibacterium spp. in the layered epidermis (live bacteria count)” value (Cutibacterium spp.; [3]) was “obviously inhibited”. The “inhibitory effect on Cutibacterium spp. compared with α-GO” value (Cutibacterium spp.; same concentration (1 μM)) was “better inhibitory effect”, the “increase of skin elasticity compared with 0% EGT group” value ([2]; 10% EGT base cream) was “about 20%” and the “increase of skin moisture compared with 0% EGT group” value ([2]; 10% EGT base cream) was “about 45%”. The “reduction of desquamation compared with 0% EGT group” value ([2]; 10% EGT base cream) was “about 30%”, the skin desquamation ([2]; EGT base cream (5% and 10%)) was “avoid the problem of skin desquamation” and the skin elasticity ([2]; EGT base cream (5% and 10%)) was “significantly increase”. The skin moisture ([2]; EGT base cream (5% and 10%)) was “significantly increase”, the “effect on relative abundance of Streptococcus, 10% EGT group compared with 5% EGT” value (Streptococcus; 10% EGT base cream) was “more obvious” and the “relative abundance (RA) of Streptococcus in skin vs pure base cream group” value (Streptococcus; EGT base cream (5% and 10%), healthy women) was “more abundant”.
